Measurements reported in patent EP0308065A2, “Therapeutic nucleosides” (priority 1987, dated 1989).
Counter-ions that a name gives are not always drawn.

Tests used:
[1] = humans, after oral administration (background statement); cited from earlier work
[2] = growth inhibition of uninfected mammalian cells (L cells); format: cell-based; conditions: mouse, three days exposure, L cells (murine), read-out: Cell Toxicity (% of control at 100µm) L-Cells
Procedure: (§1) The capability of candidate compounds to inhibit the growth of D98 cells (human) and L cells (murine) was measured by determination of cell number following three days exposure of a standard number of cells to various dilutions of compound (Rideout, J. L., Krenitsky, T.A., Koszalka, G.W., Cohn, N.K., Chao, E.Y. Elion, G.B., Latter, V.S., and Williams, R.B. (1982) J. Med Chem. 25: 1040-1044). The cell number was then compared to the number obtained in the absence of compound. Cell enumeration was performed by either direct particle counts following trypsinization of the monolayer, or by spectrophotometric determination of the amount of vital stain taken up by the cells.
(§2) The concentration of compound resulting in 50% of control values (IC50) was calculated either by direct interpolation from graphs of the log of the compound concentration versus the percent of control value, or from a computer program which analyses the data according to the same algorithm. Data in the range of 20% to 80% of control were used in these calculations.

[3] = tested on: Herpes Simplex Virus (HSV 1); assay: plaque reduction assay of HSV 1 in monolayers of Vero cells; format: cell-based; conditions: HSV 1, Vero cells, read-out: IC₅₀
Procedure: Herpes Simplex Virus (HSV 1) was assayed in monolayers of Vero cells in multiwell trays. Activity of compounds was determined in the plaque reduction assay, in which a cell monolayer was infected with a suspension of HSV 1, and then overlaid with nutrient agarose in the form of a gel to ensure that there was no spread of virus throughout the culture. A range of concentrations of compound of known molarity was incorporated in the nutrient agarose overlay. Plaque numbers at each concentration were expressed as percentages of the control and a dose-response curve was drawn. From this curve the 50% inhibitory concentration (IC₅₀) was estimated.

[4] = growth inhibition of uninfected mammalian cells (D98); format: cell-based; conditions: three days exposure, D-98 cells (human), read-out: Cell Toxicity (% of control at 100µm) D-98 Cells
Procedure: as §1, §2

[5] = oral bioavailability: urinary recovery as acyclovir after gavage; conditions: Long Evans rats, dose equivalent to 25 mg/kg acyclovir, urine collected 24 and 48 hours post-dose
Procedure: Long Evans Rats were adminstered the compound to be tested by gavage at a dose equivalent to 25 mg/kg acyclovir. The urine was collected for 24 and 48 hours post-dose, ultrafiltered, and analysed by reverse-phase high-pressure liquid chromatography. The oral bioavailability of the compound was expressed as the percent of the dose excreted in the urine as acyclovir.

| IC50 [3] | Urinary Recovery (% of dose) as acyclovir [5] | Compound | recovery in the urine [1] | activity at 72 h, 100 µM [2] | activity at 72 h, 100 µM [4] |
| --- | --- | --- | --- | --- | --- |
| 80 to 100 nM |  | Nc1nc2c(ncn2COCCO)c(=O)[nH]1 [Acyclovir, 9-(2-Hydroxyethoxymethyl)guanine] | 20% | 72% | 99% |
|  |  | CC(C)[C@H](N)C(=O)OCCOCn1cnc2c(=O)[nH]c(N)nc21 [Example 1B, 2-(2-Amino-1,6-dihydro-6-oxo-9H(purin-9-yl)methoxy) ethyl L-valinate hydrochloride monohydrate] |  | 85% | 91% |
| 3800 nM | 50 % of dose | CC[C@H](C)[C@H](N)C(=O)OCCOCn1cnc2c(=O)[nH]c(N)nc21 [Example 2, 2-(2-amino-1,6-dihydro-6-oxo-9H(purin-9-yl)methoxy)ethyl L-isoleucinate hydrochloride] |  | 83% | 80% |
|  | 30 % of dose | NCC(=O)OCCOCn1cnc2c(=O)[nH]c(N)nc21 [Glycyl ester of ACV] |  |  |  |
|  | 34 % of dose | C[C@H](N)C(=O)OCCOCn1cnc2c(=O)[nH]c(N)nc21 [L -alanyl ester of ACV] |  |  |  |
